Measured values as given in article PMC6934184, “Selective DNA-PKcs inhibition extends the therapeutic index of localized radiotherapy and chemotherapy” (The Journal of Clinical Investigation, 2019).

Target: T1, RIPK2 (Homo sapiens, UniProt O43353)
T1 construct: purchased Thermo Fisher Scientific (Life Technologies) SelectScreen
Test: SelectScreen LanthaScreen
Format: binding
Details: read-out: % displacement
Protocol: The in vitro kinase selectivity of NU5455 was determined using the SelectScreen Broad Assay Panel (Thermo Fisher Scientific) involving activity and binding assays (Supplemental Table 1). […] Class IA PI3Ks were measured using the p85α subunit.
Kinase [ATP] % Assay Kinase [ATP] % Assay Kinase [ATP] % Assay Kinase [ATP] % Assay […]
MAPK11 (p38 beta) Km app 9.5 Z RIPK2 n/a 3.1 L AKT2 (PKB beta) Km app 0.0 Z PRKCE (PKC epsilon) Km app -4.9 Z […]
SGK (SGK1) Km app 8.5 Z MAP4K2 (GCK) Km app 2.7 Z TLK2 n/a -0.3 L STK38 (NDR) n/a -5.9 L
MERTK (cMER) Km app 8.3 Z CDK2/cyclin A Km app 2.7 Z TGFBR1 (ALK5) n/a -0.4 L MATK (HYL) Km app -6.3 Z
FYN Km app 8.3 Z EPHA1 Km app 2.7 Z CLK3 Km app -0.5 Z ABL1 E255K Km app -6.6 Z
TEC n/a 8.1 L CDK2/cyclin E1 n/a 2.7 L MAP3K14 (NIK) n/a -0.5 L STK17A (DRAK1) n/a -6.6 L
KIT V654A n/a 8.1 L TESK2 n/a 2.7 L AKT3 (PKB gamma) Km app -0.5 Z JAK2 JH1 JH2 Km app -6.7 Z
ROS1 Km app 8.0 Z SPHK1 Km app 2.7 A MAP3K9 (MLK1) Km app -0.5 Z PRKACB (PRKAC beta) n/a -6.8 L
FGFR3 K650E Km app 7.9 Z AMPK A2/B1/G1 Km app 2.6 Z IKBKB (IKK beta) Km app -0.6 Z PDGFRA (PDGFR alpha) Km app -6.8 Z
RAF1 (cRAF) Y340D Y341D 100 7.9 Z DYRK3 Km app 2.6 Z CAMK2A (CaMKII alpha) Km app -0.6 Z NEK9 Km app -7.2 Z
PI4KA (PI4K alpha) 10 7.8 A CSNK1D (CK1 delta) Km app 2.6 Z PRKCB1 (PKC beta I) Km app -0.7 Z PDK1 Km app -7.3 Z […]

T1 sequence (O43353 whole entry): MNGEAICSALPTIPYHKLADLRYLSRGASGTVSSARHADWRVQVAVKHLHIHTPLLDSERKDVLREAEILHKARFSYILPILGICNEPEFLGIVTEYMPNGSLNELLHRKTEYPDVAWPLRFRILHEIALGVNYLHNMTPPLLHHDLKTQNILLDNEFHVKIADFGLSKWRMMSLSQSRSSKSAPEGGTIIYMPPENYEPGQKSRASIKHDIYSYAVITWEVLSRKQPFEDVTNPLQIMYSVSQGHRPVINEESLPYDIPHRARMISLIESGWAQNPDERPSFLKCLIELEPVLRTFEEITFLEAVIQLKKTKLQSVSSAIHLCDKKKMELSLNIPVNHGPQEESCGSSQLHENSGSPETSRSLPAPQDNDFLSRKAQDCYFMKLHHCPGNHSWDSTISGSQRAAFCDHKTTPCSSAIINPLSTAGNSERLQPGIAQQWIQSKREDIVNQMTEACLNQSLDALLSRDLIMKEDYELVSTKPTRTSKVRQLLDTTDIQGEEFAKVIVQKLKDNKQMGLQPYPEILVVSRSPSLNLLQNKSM

Which inhibition at 1 µM does the source give for `CN(C(=O)CN1CCOCC1)c1ccc2sc3c(-c4cccc5c(=O)cc(N6CC7CCC(C6)O7)oc45)cccc3c2c1` [NU5455] here?
Its inhibition at 1 µM is 3.1%.
